Article PMC9230797, “Integration of a Physiologically Based Pharmacokinetic and Pharmacodynamic Model for Tegoprazan and Its Metabolite: Application for Predicting Food Effect and Intragastric pH Alterations” (Pharmaceutics, 2022)
Where “and” joins values, the source holds several entries; their conditions need not be identical. Equal values may be shown once.

Columns and labels:
[1] = Microsomal metabolic stability in human liver microsomes; type: in vitro ADME
Method: The NADPH-generating system, glucose 6-phosphate (3.3 mM), 0.1 M potassium phosphate (pH 7.4), and human liver microsomes (HLMs; 0.5 mg/mL) were combined and incubated at 37 °C for 5 min. The organic content in the reaction mixture was 0.01% DMSO and less than 1% acetonitrile. Then, 1 μM tegoprazan and M1 were added to the reaction tube (total volume: 160 μL) and incubated at 37 °C for 0, 5, 15, 30, and 60 min. To terminate the reaction, 320 μL of acetonitrile containing an internal standard (100 ng/mL carbamazepine) was added to each sample. All experiments were performed in triplicate. The samples were vortexed for 5 min and centrifuged at 3000 rpm at 4 °C for 10 min. The concentrations of tegoprazan and M1 were determined by liquid chromatography–tandem mass spectrometry (LC–MS/MS). The concentrations of tegoprazan and M1 at 0 min were used to assess metabolism by HLMs based on changes in drug concentration over time. The terminal slope of linear regression was used to calculate the intrinsic clearance (CLint) of tegoprazan and M1. For the in vitro HLM system, CLint was calculated using Equation (1). CLint,mic (μL/min/mg protein) = k × Vincubation/Cincubation(1) where Vincubation is the incubation volume and Cincubation is the concentration of the microsomal protein.

recombinant CYP2C8 = biological target: T1, recombinant CYP2C8 (Homo sapiens, UniProt P10632); test: Intrinsic clearance using recombinant CYPs: CYP2C8; type: in vitro ADME; details: 1 μM
T1 construct: purchased Corning Life Sciences (Woburn, MA, USA)
T1 sequence (P10632 1-490): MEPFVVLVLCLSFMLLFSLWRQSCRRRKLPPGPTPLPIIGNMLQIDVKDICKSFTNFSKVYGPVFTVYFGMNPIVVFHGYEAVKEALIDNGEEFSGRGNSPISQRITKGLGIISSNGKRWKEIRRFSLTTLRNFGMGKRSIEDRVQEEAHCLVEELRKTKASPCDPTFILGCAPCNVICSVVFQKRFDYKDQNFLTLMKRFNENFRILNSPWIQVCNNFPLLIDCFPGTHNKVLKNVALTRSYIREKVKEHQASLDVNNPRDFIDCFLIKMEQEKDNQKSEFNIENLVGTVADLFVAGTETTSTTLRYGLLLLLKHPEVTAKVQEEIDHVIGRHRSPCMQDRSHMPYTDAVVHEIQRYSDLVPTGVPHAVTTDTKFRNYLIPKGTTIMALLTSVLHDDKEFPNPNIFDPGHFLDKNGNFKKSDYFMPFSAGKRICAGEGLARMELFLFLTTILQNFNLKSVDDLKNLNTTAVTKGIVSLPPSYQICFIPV
Method: The elimination profiles of tegoprazan and M1 were assessed using rCYPs. All the assay procedures were performed according to the manufacturer’s instructions. Master mix (1.399 mL), containing the NADPH-generating system, 3.3 mM of glucose 6-phosphate, PBS buffer, deionized water, and each rCYP (25 pmol/μL of CYP2C8, 2C19, and 2E1 and 50 pmol/μL of CYP3A4, 2C9, and 2D6), was added to a microtube and pre-incubated at 37 °C for 5 min. Next, 1 μM tegoprazan and M1 were added and incubated at 37 °C for 0, 5, 10, 20, 30, 45, and 60 min. A total of 100 μL of the sample, incubated for predefined duration, was transferred to a fresh e-tube. Next, 200 μL of acetonitrile containing tegoprazan-d6 (0.5 μM) was added, vortexed for 5 min, and centrifuged at 16,200× g and 4 °C for 10 min. The concentrations of the remaining tegoprazan and M1 were determined by LC–MS/MS. All experiments were performed in duplicate. CLint,rCYP levels were assessed using the results of the disappearance test. The terminal slope of the linear regression was used to determine the CLint for tegoprazan. The CLint resulting from rCYPs was calculated using Equation (3):(3) CLint,rCYP(μL/min/pmol CYP)=0.693/t1/2×1400/concentration of CYP […]

[2] = Clinical PK of single and repeated oral doses of tegoprazan in healthy adult males (literature); type: in vivo, human; details: 100 mg once daily; from values of ref 15

HLM intrinsic clearance (CLint,HLM) ([1]; 1 μM, HLM 0.5 mg/mL with NADPH, experimental data): 15.96 μL/min/mg protein
percentage remaining after incubation ([1]; control sample without NADPH): 99.54% ± 5.32
microsomal CLint at 1 μM ([1]; human, human liver microsomes, pH 7.4, 1 μM, HLM 0.5 mg/mL with NADPH, experimental data, read-out: HLM intrinsic clearance (CLint,HLM)): 16 µL/min/mg
CLint, CYP2C8 (recombinant CYP2C8; experimental data): 0.06 µL/min/pmol and 0.060 µL/min/pmol
Slope (disappearance) (recombinant CYP2C8; rCYP2C8): 0.002
decrease of observed Cmax at Day 7 compared with Day 1 [2]: approximately 40.2%
SMILES: Cc1nc2cc(C(=O)N(C)C)cc(O[C@H]3CCOc4cc(F)cc(F)c43)c2[nH]1 [tegoprazan]
